No end group written: not given here.
Legend:
E. coli JW0013 = assay type: cell-based; conditions: for MIC E. coli JW0013: JW0013, 1 h; for MIC in 20% M9 / MIC in 20% MHB / MIC in 60% M9 / MIC in 60% MHB / MIC in 100% M9 / MIC in 100% MHB: JW0013, 6 h
E. coli O157:H7 = assay type: cell-based; conditions: O157:H7, 1 h
E. coli JJ2487 = assay type: cell-based; conditions: JJ2487, 1 h
E. coli MC1061 = assay type: cell-based; conditions: MC1061, 1 h
Salmonella MH91989 = assay type: cell-based, Salmonella enterica serovar Enteritidis; conditions: 1 h
E. coli J2210 = assay type: cell-based; conditions: J2210, 1 h
Salmonella SL1344 = assay type: cell-based, Salmonella enterica serovar Typhimurium; conditions: 1 h
[1] = cited from earlier work

Substance | MIC E. coli JW0013 (E. coli JW0013) | MIC in 20% M9 (E. coli JW0013) | MIC in 20% MHB (E. coli JW0013) | MIC in 60% M9 (E. coli JW0013) | MIC in 60% MHB (E. coli JW0013) | MIC in 100% M9 (E. coli JW0013) | MIC in 100% MHB (E. coli JW0013) | MIC E. coli O157:H7 (E. coli O157:H7) | MIC E. coli JJ2487 (E. coli JJ2487) | MIC E. coli MC1061 (E. coli MC1061) | MIC Salmonella MH91989 (Salmonella MH91989) | MIC E. coli J2210 (E. coli J2210) | MIC Salmonella SL1344 (Salmonella SL1344) | antimicrobial activity compared to Onc18 [1]
VDKKPYKPRPRPPRRIYNR-NH2 [VDKKPYKPRPRPPRRIYNR-NH2] | 0.30 ± 0.07 µg/mL | 0.30 ± 0.09 µg/mL | 0.20 ± 0.09 µg/mL | 1.57 ± 0.68 µg/mL | 0.79 ± 0.35 µg/mL | 9.60 ± 2.00 µg/mL | 2.40 ± 0.56 µg/mL | 1.57 ± 0.68 µg/mL | 0.30 ± 0.07 µg/mL | 0.15 ± 0.03 µg/mL | 0.42 ± 0.21 µg/mL | 0.20 ± 0.09 µg/mL | 0.42 ± 0.21 µg/mL | –
VDKKPYLPRPRPPRRIYNR-NH2 [VDKKPYLPRPRPPRRIYNR-NH2] | 0.60 ± 0.14 µg/mL | – | – | – | – | – | – | 2.40 ± 0.56 µg/mL | 0.60 ± 0.14 µg/mL | 0.30 ± 0.07 µg/mL | 0.60 ± 0.14 µg/mL | 0.39 ± 0.18 µg/mL | 0.60 ± 0.14 µg/mL | –
VDKKPYRPRPRPPRRIYNR-NH2 [VDKKPYRPRPRPPRRIYNR-NH2] | 0.39 ± 0.18 µg/mL | 0.39 ± 0.18 µg/mL | 0.20 ± 0.09 µg/mL | 1.20 ± 0.28 µg/mL | 0.60 ± 0.14 µg/mL | 9.60 ± 2.00 µg/mL | 2.40 ± 0.56 µg/mL | 1.57 ± 0.68 µg/mL | 0.30 ± 0.07 µg/mL | 0.15 ± 0.03 µg/mL | 0.39 ± 0.18 µg/mL | 0.30 ± 0.07 µg/mL | 0.39 ± 0.18 µg/mL | –
VDKPPYKPRPRPPRRIYNR-NH2 [VDKPPYKPRPRPPRRIYNR-NH2] | 0.60 ± 0.14 µg/mL | – | – | – | – | – | – | 2.40 ± 0.56 µg/mL | 0.79 ± 0.35 µg/mL | 0.15 ± 0.03 µg/mL | 0.60 ± 0.14 µg/mL | 0.30 ± 0.07 µg/mL | 0.60 ± 0.14 µg/mL | –
VDKPPYLPRPRPPROIYNO-NH2 [Onc72] | – | – | – | – | – | – | – | – | – | – | – | – | – | improved
VDKPPYLPRPRPPRRIYNR-NH2 [VDKPPYLPRPRPPRRIYNR-NH2, reference compound] | 0.83 ± 0.42 µg/mL | 0.60 ± 0.14 µg/mL | 0.79 ± 0.35 µg/mL | 1.20 ± 0.28 µg/mL | 1.20 ± 0.28 µg/mL | 2.40 ± 0.56 µg/mL | 2.40 ± 0.56 µg/mL | 3.14 ± 1.28 µg/mL | 0.60 ± 0.14 µg/mL | 0.30 ± 0.07 µg/mL | 0.60 ± 0.14 µg/mL | 0.79 ± 0.35 µg/mL | 0.60 ± 0.14 µg/mL | –
VDKPPYLPRPRPPRrIYNr-NH2 [Onc112] | – | – | – | – | – | – | – | – | – | – | – | – | – | improved
VDKPPYRPRPRPPRRIYNR-NH2 [VDKPPYRPRPRPPRRIYNR-NH2] | 0.42 ± 0.21 µg/mL | – | – | – | – | – | – | 2.40 ± 0.56 µg/mL | 0.39 ± 0.18 µg/mL | 0.20 ± 0.09 µg/mL | 0.60 ± 0.14 µg/mL | 0.39 ± 0.18 µg/mL | 0.42 ± 0.21 µg/mL | –
VDKRPYLPRPRPPRRIYNR-NH2 [VDKRPYLPRPRPPRRIYNR-NH2] | 0.83 ± 0.42 µg/mL | – | – | – | – | – | – | 2.40 ± 0.56 µg/mL | 0.39 ± 0.18 µg/mL | 0.30 ± 0.07 µg/mL | 0.60 ± 0.14 µg/mL | 0.60 ± 0.14 µg/mL | 0.60 ± 0.14 µg/mL | –
VDKRPYRPRPRPPRRIYNR-NH2 [VDKRPYRPRPRPPRRIYNR-NH2] | 0.39 ± 0.18 µg/mL | – | – | – | – | – | – | 1.66 ± 0.82 µg/mL | 0.42 ± 0.21 µg/mL | 0.15 ± 0.03 µg/mL | 0.42 ± 0.21 µg/mL | 0.30 ± 0.07 µg/mL | 0.39 ± 0.18 µg/mL | –
